Source: patent publication US9273003B2, “Methods of treating lymphoma and rheumatoid arthritis with cyclopentyl (2S)-cyclohexyl[({6-[3-(hydroxyamino)-3-oxopropyl]pyridin-3-yl}methyl)amino]acetate” (GlaxoSmithKline Intellectual Property Development Limited, priority 2006, dated 2016)

What follows are compounds tested on intracellular carboxylesterases (U937 cell extract) (assay: Broken cell carboxylesterase assay, U937 cell extract). Settings: ester 2.5 μM, 37° C.
Type: in vitro ADME
Method: Any given compound of the present invention wherein R1 is an ester group may be tested to determine whether it meets the requirement that it be hydrolysed by intracellular esterases, by testing in the following assay.
U937 or Hut78 tumour cells (˜10^9) were washed in 4 volumes of Dulbeccos PBS (˜1 liter) and pelleted at 525 g for 10 min at 4° C. This was repeated twice and the final cell pellet was resuspended in 35 mL of cold homogenising buffer (Trizma 10 mM, NaCl 130 mM, CaCl2 0.5 mM pH 7.0 at 25° C.). Homogenates were prepared by nitrogen cavitation (700 psi for 50 min at 4° C.). The homogenate was kept on ice and supplemented with a cocktail of inhibitors at final concentrations of: • Leupeptin 1 μM • Aprotinin 0.1 μM • E64 8 μM • Pepstatin 1.5 μM • Bestatin 162 μM • Chymostatin 33 μM After clarification of the cell homogenate by centrifugation at 525 g for 10 min, the resulting supernatant was used as a source of esterase activity and was stored at −80° C. until required. Measurement of Ester Cleavage
Hydrolysis of esters to the corresponding carboxylic acids can be measured using the cell extract, prepared as above. To this effect cell extract (˜30 μg/total assay volume of 0.5 ml) was incubated at 37° C. in a Tris-HCl 25 mM, 125 mM NaCl buffer, pH 7.5 at 25° C. At zero time the ester (substrate) was then added at a final concentration of 2.5 μM and the samples were incubated at 37° C. for the appropriate time (usually 0 or 80 min). Reactions were stopped by the addition of 3× volumes of acetonitrile. For zero time samples the acetonitrile was added prior to the ester compound. After centrifugation at 12000 g for 5 min, samples were analysed for the ester and its corresponding carboxylic acid at room temperature by LCMS (Sciex API 3000, HP1100 binary pump, CTC PAL). Chromatography was based on an AceCN (75×2.1 mm) column and a mobile phase of 5-95% acetonitrile in water/0.1% formic acid.
Rates of hydrolysis are expressed in pg/mL/min.
With `Cc1ccc(NCc2cnc3nc(N)nc(N)c3c2C)cc1` [drawing 94] the “Hydrolysis Rate Range U937 Cells” value was 1000 to 50000 pg/mL/min.
In the case of `Cc1ccc(NCc2cnc3nc(N)nc(N)c3c2C)cc1` [drawing 96], the “Hydrolysis Rate Range U937 Cells” value is reported as over 50000 pg/mL/min.
With `Cc1ccc2cc(C(=O)NO)sc2c1` [drawing 87] the “Hydrolysis Rate Range U937 Cells” value was over 50000 pg/mL/min.
With `Cc1ccc2cc(C(=O)NO)sc2c1` [drawing 84] the “Hydrolysis Rate Range U937 Cells” value was 1000 to 50000 pg/mL/min.
With `Cc1ccc(NCc2cnc3nc(N)nc(N)c3c2C)cc1` [drawing 92] the “Hydrolysis Rate Range U937 Cells” value was 1000 to 50000 pg/mL/min.
`Cc1ccc(NCc2cnc3nc(N)nc(N)c3c2C)cc1` [drawing 90] was tested, and the “Hydrolysis Rate Range U937 Cells” value was over 50000 pg/mL/min.
In the case of `COc1cc2c(Oc3ccc(NC(=O)c4ccccc4)cc3)ccnc2cc1C`, the “Hydrolysis Rate Range U937 Cells” value is reported as 100 to 1000 pg/mL/min.
For `Cc1ccc2cc(C(=O)NO)sc2c1` [drawing 101], the “Hydrolysis Rate Range U937 Cells” value was over 50000 pg/mL/min.
For `Cc1ccc2cc(C(=O)NO)sc2c1` [drawing 98], the “Hydrolysis Rate Range U937 Cells” value was over 50000 pg/mL/min.
